Values after ≈ are worked out from the molar mass of the structure shown. Read-outs that look alike come from different tables or passages of the source.
How the values were obtained:
IL-6 secretion = IL-6 secretion assay in astrocytes (Promega Lumit IL-6 kit); assay type: cell-based, human; conditions: Homo sapiens, Astrocyte, read-out: IL6-Inhib.
Protocol: IL-6 secretion assay. HCAs were plated at 20,000 cells per well in white clear bottom 96-well plates. Two to three days later, media was removed and replaced with media containing 10 ng/mL IL1B and compound dilution series. Five hours later, plates were processed using the Lumit IL-6 Assay Kit (Promega W6030) according to the manufacturer's instructions.
• ^1Radiometric kinase assay from Eurofins. Performed in astrocytes with a Promega Lumit IL-6 kit. A series of halogenated flavones was generated and assayed (Table 3).

Aqueous solubility = assay type: physicochemical; conditions: read-out: Aqueous Solubility
CK2A2 = molecular target: T1, CK2A2 (Homo sapiens, UniProt P19784); test: Radiometric kinase assay (Eurofins), CK2A2; assay type: biochemical; conditions: read-out: CK2A2 RAD IC50
T1 construct: purchased Eurofins
Text: (§1) • ^1Radiometric kinase assay from Eurofins. Performed in astrocytes with a Promega Lumit IL-6 kit.

CK2A1 = molecular target: T2, CK2A1 (Homo sapiens, UniProt P68400); test: Radiometric kinase assay (Eurofins), CK2A1; assay type: biochemical; conditions: read-out: CK2A1 RAD IC50
T2 construct: purchased Eurofins
Text: FIGS. 4A-4F characterize flavones for in vitro and in-cell CK2 inhibition. […] Representative of two independent experiments. […] Nonlinear fit was used to calculate IC50. […] Nonlinear fit was used to calculate IC50. […] Nonlinear fit was used to calculate IC50. […] Normalized to DMSO, data are representative of three independent experiments.
as §1

NF-κB = test: NF-κB-Luciferase reporter assay in THP-1 NF-κB-Lucia cells; assay type: cell-based, human; conditions: FIG. 4D
Protocol: NF-κB-Luciferase reporter assay. THP-1 NF-κB-Lucia cells were plated at 10,000 cells per well with 10 ng/mL PMA. Three days later, media was removed and replaced with media containing LPS (1 μg/mL) and dilution series of compounds in flat bottom clear 96-well plates for 24 hours. A day later, 20 μL of media was transferred to a 96-well white plate and 50 μL of QuantiLuc Gold reagent (InvivoGen rep-qlcg5) was added per well; plate was mixed in the plate reader and luminescence was read using a Promega GloMax Reader.

[1] = aqueous medium (not further specified), Table 8
[2] = aqueous (not further specified), Table 3

T1 sequence (P19784 whole entry): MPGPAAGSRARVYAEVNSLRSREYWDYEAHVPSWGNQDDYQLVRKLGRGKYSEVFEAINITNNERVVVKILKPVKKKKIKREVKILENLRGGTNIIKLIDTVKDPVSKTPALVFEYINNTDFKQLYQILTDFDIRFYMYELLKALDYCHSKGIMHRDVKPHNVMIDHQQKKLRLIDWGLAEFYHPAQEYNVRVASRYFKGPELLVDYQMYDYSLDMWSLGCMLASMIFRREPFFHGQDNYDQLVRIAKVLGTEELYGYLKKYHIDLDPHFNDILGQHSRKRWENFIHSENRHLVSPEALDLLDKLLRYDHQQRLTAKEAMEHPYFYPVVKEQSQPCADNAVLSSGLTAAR
T2 sequence (P68400 whole entry): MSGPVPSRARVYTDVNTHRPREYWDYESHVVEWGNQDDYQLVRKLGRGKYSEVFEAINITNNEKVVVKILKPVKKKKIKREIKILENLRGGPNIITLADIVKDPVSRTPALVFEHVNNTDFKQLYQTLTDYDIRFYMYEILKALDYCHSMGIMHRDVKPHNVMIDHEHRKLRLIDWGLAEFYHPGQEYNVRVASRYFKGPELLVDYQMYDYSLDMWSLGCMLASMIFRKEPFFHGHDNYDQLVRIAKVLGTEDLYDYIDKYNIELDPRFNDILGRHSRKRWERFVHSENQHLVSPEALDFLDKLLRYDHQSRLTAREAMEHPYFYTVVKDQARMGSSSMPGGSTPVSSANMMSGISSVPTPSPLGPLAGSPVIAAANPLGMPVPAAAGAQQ

| SMILES | IC50 (IL-6 secretion; Table 8) [µM] | solubility (Aqueous solubility; [1]) [µM] | IC50 (CK2A2; Table 8, quinazolinones) [µM] | IC50 (CK2A1; Table 8, quinazolinones) [µM] | IC50 (IL-6 secretion; Table 11) [µM] | solubility (Aqueous solubility; Table 11) [µM] | IC50 (CK2A2; Table 11, aurones) [µM] | IC50 (CK2A1; Table 11, aurones) [µM] | further results |
| --- | --- | --- | --- | --- | --- | --- | --- | --- | --- |
| O=c1[nH]c(-c2cc(Cl)c(O)c(Cl)c2)nc2c(Br)cc(Br)cc12 [JKT.773B] | > 10 | 24.1 (≈ 11.2 µg/mL) | 0.276 | 0.243 | – | – | – | – | – |
| O=c1[nH]c(-c2cc(F)c(O)c(F)c2)nc2c(Br)cc(Br)cc12 [JKT.774A] | > 10 | 152 (≈ 65.5 µg/mL) | 1.04 | 0.818 | – | – | – | – | – |
| O=c1[nH]c(-c2ccc(O)c(C(F)(F)F)c2)nc2c(Br)cc(Br)cc12 [JKT.775A] | > 10 | 17.9 (≈ 8.31 µg/mL) | 2.48 | 0.37 | – | – | – | – | – |
| O=c1cc(-c2ccc(O)c(Br)c2)oc2c(Cl)cccc12 [JKT.777A] | – | – | – | – | – | – | – | – | IC50 (IL-6 secretion; Table 3): 10.3 µM; solubility (Aqueous solubility; [2]): 14 µM (≈ 4.92 µg/mL); IC50 (CK2A2; Table 3, halogenated flavones): 0.021 µM; IC50 (CK2A1; Table 3, halogenated flavones): 0.02 µM |
| O=c1cc(-c2ccc(O)c(Br)c2)oc2ccc(Cl)cc12 [JKT.778A] | – | – | – | – | – | – | – | – | IC50 (IL-6 secretion; Table 3): 7.4 µM; solubility (Aqueous solubility; [2]): 15.1 µM (≈ 5.31 µg/mL); IC50 (CK2A2; Table 3, halogenated flavones): 0.078 µM; IC50 (CK2A1; Table 3, halogenated flavones): 0.115 µM |
| COc1ccc2c(=O)cc(-c3ccc(O)c(Br)c3)oc2c1Br [JKT.780A] | – | – | – | – | – | – | – | – | IC50 (IL-6 secretion; Table 3): > 10 µM; solubility (Aqueous solubility; [2]): < 0.01 µM; IC50 (CK2A2; Table 3, halogenated flavones): 0.025 µM; IC50 (CK2A1; Table 3, halogenated flavones): 0.009 µM |
| COc1ccc2c(=O)cc(-c3ccc(O)c(C(F)(F)F)c3)oc2c1Br [JKT.786A] | – | – | – | – | – | – | – | – | IC50 (IL-6 secretion; Table 3): > 10 µM; solubility (Aqueous solubility; [2]): < 0.01 µM; IC50 (CK2A2; Table 3, halogenated flavones): 1.71 µM; IC50 (CK2A1; Table 3, halogenated flavones): 2.48 µM |
| COc1ccc2c(=O)cc(-c3ccc(O)c(Cl)c3)oc2c1Br [JKT.787A] | – | – | – | – | – | – | – | – | IC50 (IL-6 secretion; Table 3): 7.7 µM; solubility (Aqueous solubility; [2]): < 0.01 µM; IC50 (CK2A2; Table 3, halogenated flavones): 0.016 µM; IC50 (CK2A1; Table 3, halogenated flavones): 0.024 µM |
| O=c1cc(-c2ccc(O)c(Cl)n2)oc2c(Br)cc(Br)cc12 [JKT.801A] | – | – | – | – | – | – | – | – | IC50 (IL-6 secretion; Table 4): 4.4 µM; solubility (Aqueous solubility; Table 4): 155 µM (≈ 66.8 µg/mL); IC50 (CK2A2; Table 4): 0.021 µM; IC50 (CK2A1; Table 4): 0.024 µM |
| O=c1[nH]c(-c2ccc(O)c(Br)c2)nc2c(Cl)cc(Cl)cc12 [JKT.805A] | > 10 | 4.2 (≈ 1.62 µg/mL) | 2.83 | 2.89 | – | – | – | – | – |
| O=c1[nH]c(-c2ccc(O)c(Cl)c2)nc2c(Cl)cc(Cl)cc12 [JKT.806A] | > 10 | 17 (≈ 5.81 µg/mL) | > 5 | > 5 | – | – | – | – | – |
| O=c1[nH]c(-c2cc(Cl)c(O)c(Cl)c2)nc2c(Cl)cc(Cl)cc12 [JKT.807A] | > 10 | 126 (≈ 47.3 µg/mL) | > 5 | 0.91 | – | – | – | – | – |
| O=c1[nH]c(-c2cc(F)c(O)c(F)c2)nc2c(Cl)cc(Cl)cc12 [JKT.808A] | > 10 | 189 (≈ 64.7 µg/mL) | 1.62 | 2.98 | – | – | – | – | – |
| O=c1[nH]c(-c2ccc(O)c(C(F)(F)F)c2)nc2c(Cl)cc(Cl)cc12 [JKT.809A] | > 10 | < 0.01 | > 5 | 0.082 | – | – | – | – | – |
| COc1cc(-c2nc3c(Cl)cc(Cl)cc3c(=O)[nH]2)ccc1O [JKT.810A] | > 10 | < 0.01 | > 5 | > 5 | – | – | – | – | – |
| COc1c(Br)cc2c(c1Br)O/C(=C\c1ccc(O)c(I)c1)C2=O [JKT.813A] | – | – | – | – | 1.1 | < 0.01 | 0.193 | 0.135 | – |
| COc1ccc2c(c1Br)O/C(=C\c1ccc(O)c(I)c1)C2=O [JKT.814A] | – | – | – | – | 4.3 | < 0.01 | 0.123 | 0.131 | – |
| COc1ccc2c(c1Br)O/C(=C\c1ccc(O)c(Br)c1)C2=O [JKT.815A] | – | – | – | – | 4.6 | < 0.01 | 0.026 | 0.047 | – |
| COc1ccc2c(c1Br)O/C(=C\c1ccc(O)cc1Br)C2=O [JKT.816A] | – | – | – | – | > 10 | < 0.01 | 1.52 | 0.119 | – |
| COc1ccc2c(c1Br)O/C(=C\c1ccc(O)c(Cl)c1)C2=O [JKT.817A] | – | – | – | – | 6.5 | < 0.01 | 0.053 | 0.059 | – |
| COc1ccc2c(c1Br)O/C(=C\c1ccc(O)cc1Cl)C2=O [JKT.818A] | – | – | – | – | > 10 | < 0.01 | > 5 | > 5 | – |
| O=c1cc(-c2ccc(O)c(Br)n2)oc2c(Br)cc(Br)cc12 [JKT.844A] | – | – | – | – | – | – | – | – | IC50 (IL-6 secretion; Table 4): 8 µM; solubility (Aqueous solubility; Table 4): 148 µM (≈ 70.2 µg/mL); IC50 (CK2A2; Table 4): 0.201 µM; IC50 (CK2A1; Table 4): 0.265 µM |
| O=c1cc(-c2ccccc2)oc2cc(O)cc(O)c12 [chrysin] | – | – | – | – | – | – | – | – | Activity in THP-1-NF-κB-Lucia monocytes (NF-κB): No activity |

Continued, in another order:

| IC50 (IL-6 secretion; Table 8) [µM] | solubility (Aqueous solubility; [1]) [µM] | IC50 (CK2A2; Table 8, quinazolinones) [µM] | IC50 (CK2A1; Table 8, quinazolinones) [µM] | IC50 (IL-6 secretion; Table 11) [µM] | solubility (Aqueous solubility; Table 11) [µM] | IC50 (CK2A2; Table 11, aurones) [µM] | IC50 (CK2A1; Table 11, aurones) [µM] | SMILES | further results |
| --- | --- | --- | --- | --- | --- | --- | --- | --- | --- |
| – | – | – | – | 5.9 | 17 (≈ 7.06 µg/mL) | 0.66 | 0.54 | COc1ccc2c(c1Br)O/C(=C\c1ccc(O)c(C(F)(F)F)c1)C2=O [JKT.819A] | – |
| – | – | – | – | > 10 | < 0.01 | 0.006 | 0.007 | COc1cc(/C=C2\Oc3c(ccc(OC)c3Br)C2=O)ccc1O [JKT.820A] | – |
| – | – | – | – | > 10 | 196 (≈ 73.4 µg/mL) | 0.206 | 1.54 | COc1ccc2c(c1Br)O/C(=C\c1ccc(C(=O)O)cc1)C2=O [JKT.821A] | – |
| – | – | – | – | 2 | < 0.01 | 0.804 | 2.01 | O=C1/C(=C/c2cc(Cl)c(O)c(Cl)c2)Oc2c(Br)cc(Br)cc21 [JKT.822A] | – |
| – | – | – | – | 5.5 | 167 (≈ 82.5 µg/mL) | 1.22 | > 5 | COc1c(Br)cc2c(c1Br)O/C(=C\c1cc(Cl)c(O)c(Cl)c1)C2=O [JKT.823A] | – |
| – | – | – | – | 10.1 | > 200 | 0.14 | 0.447 | COc1ccc2c(c1Br)O/C(=C\c1cc(Cl)c(O)c(Cl)c1)C2=O [JKT.824A] | – |
| > 10 | 22.4 (≈ 8.87 µg/mL) | 0.86 | 0.281 | – | – | – | – | O=c1[nH]c(-c2ccc(O)c(Br)c2)nc2c(Br)cccc12 [JKT.827A] | – |
| > 10 | 58.9 (≈ 20.7 µg/mL) | 1.41 | 0.652 | – | – | – | – | O=c1[nH]c(-c2ccc(O)c(Cl)c2)nc2c(Br)cccc12 [JKT.828A] | – |
| > 10 | 193 (≈ 74.6 µg/mL) | 0.659 | 0.736 | – | – | – | – | O=c1[nH]c(-c2cc(Cl)c(O)c(Cl)c2)nc2c(Br)cccc12 [JKT.829A] | – |
| > 10 | 171 (≈ 60.4 µg/mL) | 1.21 | 0.866 | – | – | – | – | O=c1[nH]c(-c2cc(F)c(O)c(F)c2)nc2c(Br)cccc12 [JKT.830A] | – |
| > 10 | 139 (≈ 53.5 µg/mL) | > 5 | > 5 | – | – | – | – | O=c1[nH]c(-c2ccc(O)c(C(F)(F)F)c2)nc2c(Br)cccc12 [JKT.831A] | – |
| 10.5 | 61 (≈ 21.2 µg/mL) | > 5 | 3.94 | – | – | – | – | COc1cc(-c2nc3c(Br)cccc3c(=O)[nH]2)ccc1O [JKT.832A] | – |
| > 10 | < 0.01 | 1.13 | 1.01 | – | – | – | – | COc1nc(-c2ccc(O)c(Br)c2)nc2c(Br)cc(Br)cc12 [JKT.842A] | – |

Reference: patent US20260199350A1, “FLAVONES, QUINOLINONES, QUINAZOLINONES, AND AURONES, AND USES IN CK2-MEDIATED DISEASES” (Salk Institute for Biological Studies, priority 2022, published 2026)
